For six molecules, IC50 results are on record in patent US8609650B2, “Bridged bicyclic aryl and bridged bicyclic heteroaryl substituted triazoles useful as Axl inhibitors” (Rigel Pharmaceuticals, Inc., priority 2006, dated 2013).

Structures are written as SMILES. Where only a bound is given, the exact number is not on record here.

This assay concerns the target T1, Axl (Homo sapiens, UniProt P30530).
T1 construct: endogenous in cells; host or cells: HeLa cells
T1 sequence (P30530 26-894): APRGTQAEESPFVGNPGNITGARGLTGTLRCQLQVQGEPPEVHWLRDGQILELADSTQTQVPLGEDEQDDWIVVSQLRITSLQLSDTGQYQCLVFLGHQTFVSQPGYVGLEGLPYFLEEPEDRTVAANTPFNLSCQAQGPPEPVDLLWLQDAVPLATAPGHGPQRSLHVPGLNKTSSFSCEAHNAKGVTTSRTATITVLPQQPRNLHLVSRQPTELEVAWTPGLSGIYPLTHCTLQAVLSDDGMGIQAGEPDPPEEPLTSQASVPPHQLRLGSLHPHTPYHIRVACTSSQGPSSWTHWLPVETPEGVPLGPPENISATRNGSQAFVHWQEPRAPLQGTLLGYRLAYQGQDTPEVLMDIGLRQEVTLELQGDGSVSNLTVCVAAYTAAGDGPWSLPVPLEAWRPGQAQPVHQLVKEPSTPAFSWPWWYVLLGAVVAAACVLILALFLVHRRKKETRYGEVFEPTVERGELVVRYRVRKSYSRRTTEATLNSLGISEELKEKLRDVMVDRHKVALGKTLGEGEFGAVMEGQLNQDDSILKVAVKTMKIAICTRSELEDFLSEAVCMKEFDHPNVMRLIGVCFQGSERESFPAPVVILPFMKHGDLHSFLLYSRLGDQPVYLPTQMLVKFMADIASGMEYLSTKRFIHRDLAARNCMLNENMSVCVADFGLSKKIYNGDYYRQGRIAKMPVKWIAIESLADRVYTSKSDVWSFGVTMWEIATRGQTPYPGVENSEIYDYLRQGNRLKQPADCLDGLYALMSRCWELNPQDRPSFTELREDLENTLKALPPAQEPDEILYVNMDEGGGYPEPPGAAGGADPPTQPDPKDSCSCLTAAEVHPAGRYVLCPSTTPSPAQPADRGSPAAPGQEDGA
The assay can be described thus: Phospho-Akt In-Cell Western Assay (ability to inhibit Axl activity). Type of assay: cell-based. Conditions: Hela cells, stimulated by Axl-antibody cross-linking, phospho-Akt chemiluminescence normalized to relative cell number. The method in brief: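 HeLa cells starved 24 h in 0.5% FCS with Axl/Fc 500 ng/mL, pre-treated 1 h at 37° C with compound, then stimulated 5 min by anti-Axl antibody cross-linking. Fixed cells probed for phospho-Akt with HRP secondary; chemiluminescence read.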
With `CN1CCC(c2ccc(Nc3nc(N)n(-c4cc(-c5ccccc5)c5c(n4)C4CCN5CC4)n3)cc2)CC1` [Compound 67, 1-(1,4-ethano-8-phenyl-1,2,3,4-tetrahydro-1,5-naphthyridin-6-yl)-N^3-(4-(1-methylpiperidin-4-yl)phenyl)-1H-1,2,4-triazole-3,5-diamine], the IC50 was less than 1000 nM. In the case of `Cc1cc(Nc2nc(N)n(-c3cc(-c4ccccc4)c4c(n3)C3CCN4CC3)n2)ccc1N1CCC(N2CCCC2)CC1` [Compound 68, 1-(1,4-ethano-8-phenyl-1,2,3,4-tetrahydro-1,5-naphthyridin-6-yl)-N^3-(3-methyl-4-(4-(pyrrolidin-1-yl)piperidin-1-yl)phenyl)-1H-1,2,4-triazole-3,5-diamine] it was less than 1000 nM.

In the case of `Nc1nc(Nc2ccc3c(c2)CCC(=O)CC3)nn1-c1cc(-c2ccccc2)c2c(n1)C1CCN2CC1` [Compound 69, 1-(1,4-ethano-8-phenyl-1,2,3,4-tetrahydro-1,5-naphthyridin-6-yl)-N^3-(7-oxo-6,7,8,9-tetrahydro-5H-benzo[7]annulene-3-yl)-1H-1,2,4-triazole-3,5-diamine], the IC50 lay within 1000 to 10000 nM.

For the molecule `Nc1nc(Nc2ccc3c(c2)CCC(NC2CCCC2)CC3)nn1-c1cc(-c2ccccc2)c2c(n1)C1CCN2CC1` (stereo not drawn) [Compound 70, 1-(1,4-ethano-8-phenyl-1,2,3,4-tetrahydro-1,5-naphthyridin-6-yl)-N^3-(7-cyclopentylamino-6,7,8,9-tetrahydro-5H-benzo[7]annulene-3-yl)-1H-1,2,4-triazole-3,5-diamine], the IC50 was less than 1000 nM.

`Nc1nc(Nc2ccc3c(c2)CCC(N2CCC(N4CCCC4)CC2)CC3)nn1-c1cc(-c2ccccc2)c2c(n1)C1CCN2CC1` (stereo not drawn) [Compound 71, 1-(1,4-ethano-8-phenyl-1,2,3,4-tetrahydro-1,5-naphthyridin-6-yl)-N^3-(7-(4-pyrrolidin-1-ylpiperidin-1-yl)-6,7,8,9-tetrahydro-5H-benzo[7]annulene-3-yl)-1H-1,2,4-triazole-3,5-diamine] registered an IC50 of less than 1000 nM. The molecule `Nc1nc(Nc2ccc3c(c2)CCC(N2CCCC2)CC3)nn1-c1cc(-c2ccccc2)c2c(n1)C1CCN2CC1` (stereo not drawn) [Compound 72, 1-(1,4-ethano-8-phenyl-1,2,3,4-tetrahydro-1,5-naphthyridin-6-yl)-N^3-(7-pyrrolidin-1-yl-6,7,8,9-tetrahydro-5H-benzo[7]annulene-3-yl)-1H-1,2,4-triazole-3,5-diamine] yielded an IC50 of less than 1000 nM.

In general, IC50 refers to the concentration needed to halve the response being measured. A low value points to greater potency in that assay.
